Measured values taken from patent US20230014445A1, “ALLOSTERIC CHROMENONE INHIBITORS OF PHOSPHOINOSITIDE 3-KINASE (PI3K) FOR THE TREATMENT OF DISEASE” (Petra Pharma Corporation, priority 2021, published 2023).
pIC50: −log10 of the molar value.

Columns and labels:
[1] = target: T1, human full length PIK3KA H1047R mutant (p110α/p85α complex) (Homo sapiens, UniProt P42336, H1047R); experiment: PI3K-Alpha Kinase (PIK3CA) biochemical activity, H1047R mutant (ADP-Glo); conditions: 20 uM ATP
T1 construct: Recombinant, catalytically active human full length PIK3KA Wild-type and H1047R mutant were purchased; 6xHis (N); purchased EMD Millipore Sigma 14-792M
From the text: (§1) PI3K-Alpha Kinase (PIK3CA) Activity, Wild-Type and H1047R Mutant and Determining IC50 Values for Inhibitors
(§2) Recombinant, catalytically active human full length PIK3KA Wild-type and H1047R mutant were purchased as 1:1 complex of N-terminal 6×his tagged p110α (catalytic) and untagged p85α, (regulatory subunit) from EMD Millipore Sigma (cat. no. 14-602M and 14-792M, respectively). PIP2diC8 (Avanti Polar Lipids Inc., cat. no. 850185) or Soy PI (Avanti Polar Lipids Inc., cat. No. 840044P) was used as lipid substrate. PIP2diC8 or PI lyophilized powder was dissolved in milliQ water to a concentration of 1 mM just before use. 10 mM stock compounds in DMSO were serially diluted 1:3 to generate a 10-point curve and plated using an acoustic liquid handler system (Echo 550 series instrument, Labcyte). A 10× intermediate compound plate (200 uM starting compound concentration and 10% DMSO) was prepared before starting the reaction. A typical reaction mixture (50 uL) comprised 40 mM HEPES buffer, pH 7.4, 25 mM MgCl2, 0.01% v/v triton-X-100, 1% v/v DMSO, 20 mM NaCl, 1-5 nM WT or H1047R PI3K protein, 20 uM ATP, and 50 uM PIP2diC8 or Soy PI. 1% DMSO buffer alone without test compound was employed as MAX control (full activity in the absence of any inhibitor), and no enzyme control was used to determine the level of background Adenosine 5′-diphosphate (ADP) (MIN control). First, Wild-type (WT) and H1047R mutant protein in kinase buffer with all components except ATP were incubated with or without compound at 27° C. for 1 h. After the pre-incubation, the reaction was initiated by the addition of […] (20 uM final concentration). The reaction was allowed to proceed until about 10% conversion of ATP (2 uM ADP) at 27° C. After that time, 5 uL of reaction was mixed with 5 uL of ADP-Kinase Glo Reagent (ADP-Glo Kinase assay kit, Promega cat. no. V9102) supplemented with MgCl2 10 mM to stop the reaction and deplete the remaining ATP for 40 min at room temperature. Then, 10 uL of Kinase Detection Reagent (ADP-Glo Kinase assay kit, Promega cat. no. V9102) was added to simultaneously convert ADP to ATP and allow the newly synthesized ATP to be measured using a luciferase/luciferin reaction. After 30 min at room temperature the light generated was measured using a luminometer (EnVision plate reader, Perkin Elmer). Process data through Genedata-Screener tool. Relative IC50 values are determined using luminescence units by calculating percent inhibition with respect to on-plate “MIN” and “MAX” controls. Data was analyzed using a 4-parameter nonlinear logistic equation (four-parameter logistic concentration-response curve):
(§3) Y=bot+[(top−bot)/1+(x/IC50)slope]
(§4) where Y=% inhibition, X=concentration yielding y % inhibition, Bottom=minimum value of y attained by curve, Top=maximum value of y attained by curve and Slope=steepness of curve at IC50.
(§5) % Inh=[(median Max−x/median Max−median Min)]·100
(§6) IC50: concentration of compound that reduces a given response (ligand binding, enzyme response) by 50%. IC50 relative: concentration giving half the compound's maximum response.
(§7) For IC50 values shown in Table A, “A” means IC50<0.5 μM; “B” means IC50 ranging between 0.5 μM and 1.0 μM; “C” means IC50 ranging between 1 μM and 5 μM; “D” means IC50 ranging between 5 μM and 10 μM; “E” means IC50>10 μM.

[2] = target: T2, human full length PIK3KA Wild-type (p110α/p85α complex) (Homo sapiens, UniProt P42336); experiment: PI3K-Alpha Kinase (PIK3CA) biochemical activity, wild-type (ADP-Glo); conditions: 20 uM ATP
T2 construct: Recombinant, catalytically active human full length PIK3KA Wild-type and H1047R mutant were purchased; 6xHis (N); purchased EMD Millipore Sigma 14-602M
From the text: as §1, §2, §3, §4, §5, §6, §7

T1 sequence (P42336 whole entry H1047R): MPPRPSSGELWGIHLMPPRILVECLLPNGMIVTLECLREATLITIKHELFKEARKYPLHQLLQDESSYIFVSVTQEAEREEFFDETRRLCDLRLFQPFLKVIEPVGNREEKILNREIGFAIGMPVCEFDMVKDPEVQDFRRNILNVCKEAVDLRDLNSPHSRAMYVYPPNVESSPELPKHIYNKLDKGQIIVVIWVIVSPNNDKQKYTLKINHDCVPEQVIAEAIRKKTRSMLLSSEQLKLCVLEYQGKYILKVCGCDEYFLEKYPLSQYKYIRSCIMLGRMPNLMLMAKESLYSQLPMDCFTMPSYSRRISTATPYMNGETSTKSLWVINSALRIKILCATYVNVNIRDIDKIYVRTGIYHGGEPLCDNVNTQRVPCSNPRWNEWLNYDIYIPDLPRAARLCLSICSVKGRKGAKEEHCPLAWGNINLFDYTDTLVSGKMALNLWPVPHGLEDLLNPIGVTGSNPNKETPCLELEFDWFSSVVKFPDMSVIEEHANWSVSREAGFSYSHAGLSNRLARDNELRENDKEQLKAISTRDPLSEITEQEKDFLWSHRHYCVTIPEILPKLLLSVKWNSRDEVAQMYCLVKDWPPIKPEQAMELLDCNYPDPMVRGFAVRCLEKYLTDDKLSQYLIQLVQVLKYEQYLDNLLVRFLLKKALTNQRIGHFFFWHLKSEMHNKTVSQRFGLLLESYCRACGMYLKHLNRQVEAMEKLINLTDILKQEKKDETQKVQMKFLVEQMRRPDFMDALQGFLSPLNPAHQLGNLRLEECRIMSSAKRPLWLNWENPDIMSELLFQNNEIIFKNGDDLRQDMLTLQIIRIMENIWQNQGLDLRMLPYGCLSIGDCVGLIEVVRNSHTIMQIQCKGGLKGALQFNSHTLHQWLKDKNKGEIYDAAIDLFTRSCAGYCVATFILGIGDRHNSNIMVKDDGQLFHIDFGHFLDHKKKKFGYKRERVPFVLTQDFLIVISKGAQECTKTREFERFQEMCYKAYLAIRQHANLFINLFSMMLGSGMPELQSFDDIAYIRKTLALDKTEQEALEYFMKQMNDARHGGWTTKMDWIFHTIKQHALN
T1 sequence (P27986 whole entry partner): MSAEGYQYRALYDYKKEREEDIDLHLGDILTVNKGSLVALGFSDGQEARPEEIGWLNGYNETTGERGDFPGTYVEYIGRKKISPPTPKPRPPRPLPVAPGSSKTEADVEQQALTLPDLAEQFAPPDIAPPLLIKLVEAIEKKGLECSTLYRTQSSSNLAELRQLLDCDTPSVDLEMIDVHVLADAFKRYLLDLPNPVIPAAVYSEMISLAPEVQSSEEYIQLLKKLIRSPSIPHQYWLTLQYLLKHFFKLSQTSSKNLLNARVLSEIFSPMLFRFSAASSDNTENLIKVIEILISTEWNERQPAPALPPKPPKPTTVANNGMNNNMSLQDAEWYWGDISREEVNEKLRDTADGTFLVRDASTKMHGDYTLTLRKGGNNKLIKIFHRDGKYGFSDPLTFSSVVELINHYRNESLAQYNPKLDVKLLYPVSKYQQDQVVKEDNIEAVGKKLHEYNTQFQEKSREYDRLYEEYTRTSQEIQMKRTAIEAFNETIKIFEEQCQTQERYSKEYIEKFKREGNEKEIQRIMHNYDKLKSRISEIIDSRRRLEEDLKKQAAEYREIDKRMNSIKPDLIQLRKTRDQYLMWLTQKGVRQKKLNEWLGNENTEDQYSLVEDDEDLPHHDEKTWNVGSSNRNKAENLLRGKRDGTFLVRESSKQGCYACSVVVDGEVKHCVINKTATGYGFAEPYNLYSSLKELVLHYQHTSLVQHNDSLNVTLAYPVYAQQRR

| SMILES | pIC50 ([1]; Soy PI lipid substrate) | pIC50 ([2]; Soy PI lipid substrate) | pIC50 ([1]; PIP2diC8 lipid substrate) | pIC50 ([2]; PIP2diC8 lipid substrate) |
| --- | --- | --- | --- | --- |
| COc1ccc(-n2cc(-c3cc(=O)c4cc(C)cc(C(C)Nc5ccccc5C(=O)O)c4o3)cn2)cc1F (single isomer, unassigned) [Example 92, 2-[1-[2-[1-(3-Fluoro-4-methoxy-phenyl)pyrazol-4-yl]-6-methyl-4-oxo-chromen-8-yl]ethylamino]benzoic acid, Isomer 2,2,2,2-trifluoroacetic acid] | > 6.30 | 5.00 to 5.30 |  |  |
| Cc1cc(C(C)Nc2ccccc2C(=O)O)c2oc(-c3cnccn3)cc(=O)c2c1 (single isomer, unassigned; isomer 1) [Example 15, 2-[1-(6-Methyl-4-oxo-2-pyrazin-2-yl-chromen-8-yl)ethylamino]benzoic acid, Isomer 1] |  |  | > 6.30 | 5.30 to 6.00 |
| Cc1cc(C(C)Nc2ccccc2C(=O)O)c2oc(-c3ccccn3)cc(=O)c2c1 (single isomer, unassigned; isomer 1) [Example 17, 2-[1-[6-Methyl-4-oxo-2-(2-pyridyl)chromen-8-yl]ethylamino]benzoic acid, Isomer 1] | > 6.30 | 5.30 to 6.00 |  |  |
| Cc1cc(C(C)Nc2ccc(Cl)nc2C(=O)O)c2oc(-c3ccccn3)cc(=O)c2c1 (single isomer, unassigned; isomer 1) [Example 27, 6-Chloro-3-[1-[6-methyl-4-oxo-2-(2-pyridyl)chromen-8-yl]ethylamino]pyridine-2-carboxylic acid, Isomer 1] | > 6.30 | 5.30 to 6.00 |  |  |
| Cc1cc(C(C)Nc2ccc(Cl)nc2C(=O)O)c2oc(-c3cnccn3)cc(=O)c2c1 (single isomer, unassigned; isomer 1) [Example 28, 6-Chloro-3-[1-(6-methyl-4-oxo-2-pyrazin-2-yl-chromen-8-yl)ethylamino]pyridine-2-carboxylic acid, Isomer 1] | > 6.30 | 5.30 to 6.00 |  |  |
| Cc1cc(C(C)Nc2ccccc2C(=O)O)c2oc(-c3cnc(C)nc3)cc(=O)c2c1 (single isomer, unassigned; isomer 1) [Example 32, 2-[1-[6-Methyl-2-(2-methylpyrimidin-5-yl)-4-oxo-chromen-8-yl]ethylamino]benzoic acid, Isomer 1] |  |  | > 6.30 | 5.00 to 5.30 |
| Cc1cc(C(C)Nc2ccccc2C(=O)O)c2oc(-c3ncccn3)c(C)c(=O)c2c1 (single isomer, unassigned; isomer 1) [Example 34, 2-[1-(3,6-Dimethyl-4-oxo-2-pyrimidin-2-yl-chromen-8-yl)ethylamino]benzoic acid, Isomer 1] | > 6.30 | 5.30 to 6.00 |  |  |
| CC(Nc1ccc(Cl)nc1C(=O)O)c1cc(C(F)(F)F)cc2c(=O)cc(-c3ccccn3)oc12 (single isomer, unassigned; isomer 1) [Example 62, 6-Chloro-3-[1-[4-oxo-2-(2-pyridyl)-6-(trifluoromethyl)chromen-8-yl]ethylamino]pyridine-2-carboxylic acid, Isomer 1] | > 6.30 | 5.00 to 5.30 |  |  |

Further lines, results first:

| pIC50 ([1]; Soy PI lipid substrate) | pIC50 ([2]; Soy PI lipid substrate) | pIC50 ([1]; PIP2diC8 lipid substrate) | pIC50 ([2]; PIP2diC8 lipid substrate) | SMILES |
| --- | --- | --- | --- | --- |
| 6.00 to 6.30 | < 5.00 |  |  | Cc1cc(C(C)Nc2ccccc2C(=O)O)c2oc(-c3cnn(-c4ccc(OC(F)(F)F)cc4)c3)cc(=O)c2c1 (single isomer, unassigned) [Example 93, 2-[1-[6-Methyl-4-oxo-2-[1-[4-(trifluoromethoxy)phenyl]pyrazol-4-yl]chromen-8-yl]ethylamino]benzoic acid, Isomer 2,2,2,2-trifluoroacetic acid] |
| > 6.30 | 5.30 to 6.00 |  |  | COc1cc(-n2cc(-c3cc(=O)c4cc(C)cc(C(C)Nc5ccccc5C(=O)O)c4o3)cn2)ccc1C#N (single isomer, unassigned) [Example 94, 2-[1-[2-[1-(4-Cyano-3-methoxy-phenyl)pyrazol-4-yl]-6-methyl-4-oxo-chromen-8-yl]ethylamino]benzoic acid, Isomer 2,2,2,2-trifluoroacetic acid] |
| 5.30 to 6.00 | < 5.00 |  |  | Cc1cc(C(C)Nc2ccc(F)c(F)c2C(=O)O)c2oc(-c3cnn(-c4ccc(C#N)cc4)c3)cc(=O)c2c1 (single isomer, unassigned) [Example 95, 2,3-Difluoro-6-[1-[2-[1-(4-cyanophenyl)pyrazol-4-yl]-6-methyl-4-oxo-chromen-8-yl]ethylamino]benzoic acid, Isomer 1,2,2,2-trifluoroacetic acid] |
| 6.00 to 6.30 | 5.00 to 5.30 |  |  | Cc1cc(C(C)Nc2ccccc2C(=O)O)c2oc(-c3cnc(C#CC(C)(C)O)nc3)cc(=O)c2c1 (single isomer, unassigned) [Example 102, 2-[1-[2-[2-(3-Hydroxy-3-methyl-but-1-ynyl)pyrimidin-5-yl]-6-methyl-4-oxo-chromen-8-yl]ethylamino]benzoic acid, Isomer 2,2,2,2-trifluoroacetic acid] |
| > 6.30 | 5.00 to 5.30 |  |  | Cc1cc(C(C)Nc2ccccc2C(=O)O)c2oc(-c3cn(-c4ccc(C#N)cc4)cn3)cc(=O)c2c1 (single isomer, unassigned) [Example 103, 2-[1-[2-[1-(4-Cyanophenyl)imidazol-4-yl]-6-methyl-4-oxo-chromen-8-yl]ethylamino]benzoic acid, Isomer 2,2,2,2-trifluoroacetic acid] |
| 6.00 to 6.30 | < 5.00 |  |  | Cc1cc(C(C)Nc2ccccc2C(=O)O)c2oc(-c3cnn(-c4ccc(C#N)cc4F)c3)cc(=O)c2c1 (single isomer, unassigned) [Example 104, 2-[1-[2-[1-(4-Cyano-2-fluoro-phenyl)pyrazol-4-yl]-6-methyl-4-oxo-chromen-8-yl]ethylamino]benzoic acid, Isomer 2,2,2,2-trifluoroacetic acid] |
| 6.00 to 6.30 | < 5.00 |  |  | COc1ncc(-n2cc(-c3cc(=O)c4cc(C)cc(C(C)Nc5ccccc5C(=O)O)c4o3)cn2)cn1 (single isomer, unassigned) [Example 105, 2-[1-[2-[1-(2-Methoxypyrimidin-5-yl)pyrazol-4-yl]-6-methyl-4-oxo-chromen-8-yl]ethylamino]benzoic acid, Isomer 2,2,2,2-trifluoroacetic acid] |
| > 6.30 | 5.30 to 6.00 |  |  | Cc1cc(C(C)Nc2ccccc2C(=O)O)c2oc(-c3cnn(-c4ccc(Cl)cc4)c3)cc(=O)c2c1 (single isomer, unassigned) [Example 106, 2-[1-2-[1-(4-Chiorophenyl)pyrazol-4-yl]-6-methyl-4-oxo-chromen-8-yl]ethylamino]benzoic acid, Isomer 2,2,2,2-trifluoroacetic acid] |
| > 6.30 | < 5.00 |  |  | Cc1cc(C(C)Nc2ccccc2C(=O)O)c2oc(-c3cnn(-c4ccccc4C#N)c3)cc(=O)c2c1 (single isomer, unassigned) [Example 107] |
| 6.00 to 6.30 | 5.30 to 6.00 |  |  | Cc1cc(C(C)Nc2ccccc2C(=O)O)c2oc(-c3cnn(-c4ccccn4)c3)cc(=O)c2c1 (single isomer, unassigned) [Example 108, 2-[1-[6-Methyl-4-oxo-2-[1-(2-pyridyl)pyrazol-4-yl]chromen-8-yl]ethylamino]benzoic acid, Isomer 2,2,2,2-trifluoroacetic acid] |
| 6.00 to 6.30 | 5.00 to 5.30 |  |  | Cc1cc(C(C)Nc2ccccc2C(=O)O)c2oc(-c3cn(-c4ccc(C#N)cc4)nc3C)cc(=O)c2c1 (single isomer, unassigned) [Example 109, 2-[1-[2-[1-(4-Cyanophenyl)-3-methyl-pyrazol-4-yl]-6-methyl-4-oxo-chromen-8-yl]ethylamino]benzoic acid, Isomer 2,2,2,2-trifluoroacetic acid] |
